Test results as given in patent US20120252723A1, “Regulating the Amino Acid Pool Used for the Acute-Phase Protein Synthesis” (N.V. Nutricia, priority 2009, published 2012).
Entries after “also recorded” stand apart in the source; their conditions may differ.

Tests used:
HepG2 cells [1] = assay: Albumin secretion by HepG2 cells (ELISA of media); assay type: cell-based, human; conditions: for albumin secretion in media in which one amino acid was omitted: named amino acid omitted, isonitrogenously compensated with the other amino acids
Description: (§1) The effects of either the amino acid concentration or the amino acid composition on the acute-phase protein response in a human hepatocellular cell line (HepG2 cell) were studied. As model components, the production of fibrinogen and albumin were studied.
(§2) Cell culture: Human hepatoma HepG2 cells (ATCC HB-8065) were maintained in DMEM supplemented with 10% heat inactivated fetal calf serum (Life Technologies) with 2 mM glutamine and streptomycin/penicillin in Costar T75 flasks at 37° C. in a humidified atmosphere of 95% air-5% CO2. For experiments HepG2 cells were incubated in RPMI-1640 media without fetal calf serum. All experiments were carried out in 6 wells plates.
(§3) Incubations: HepG2 cells were grown in 6 wells plates to confluence, washed with DMEM ([…]) and subsequently incubated during 24-h with IL-6 and the custom media (RPMI-1640; RPMI-1640 select amino kit Gibco BRL). After the incubations, the media were collected and stored at −20° C. until analysis. The cells were then washed with phosphate-buffered saline (PBS) and lysed with 0.1M NaOH. The protein content was determined using the Bio-Rad Protein assay (Dye Reagent Concentrate, Bio-Rad Laboratories, Inc., Hercules Calif., USA) using bovine albumin (Sigma Aldrich) as standard. The data are presented as μg acute-phase protein in the supernatant per milligram protein cell content.
(§4) Antibodies: Rabbit anti-human fibrinogen and horseradish peroxidase (HRP)—conjugated rabbit anti-human fibrinogen were obtained from DakoCytomation (Denmark A/S, Glostrup, Denmark), anti-human albumin, HRP-conjugated anti-human albumin were obtained from Dade Behring B.V. (Leusden, the Netherlands).
(§5) ELISAs: Albumin and fibrinogen: 96-well flat-bottom Costar EIA/RIA plates were coated overnight with primary antibody in PBS at predetermined optimal concentration. After each incubation step, the plates were washed with 0.1% Tween-20 (Merck Eurolab B.V., Roden, the Netherlands) in PBS. After washing, the plates were blocked with 5% Protifar (Nutricia B.V., Zoetermeer, the Netherlands) in PBS during 90 min. Subsequently, the samples and antigen were incubated in 0.1% Tween-20 in PBS during 90 min. Next, the plates were incubated with HRP-conjugated antibodies in 0.1% Tween-20 in PBS during 90 min. The colorimetric reaction was carried out with undiluted 1-Step Ultra TMB-ELISA (Pierce, Rockland, Ill., USA). The reaction was stopped with 2 M sulphuric acid. The absorbances of the samples were measured at λ=450 nm.

HepG2 cells [2] = assay: Fibrinogen secretion by HepG2 cells (ELISA of media); assay type: cell-based, human; conditions: for fibrinogen secretion in media in which one amino acid was omitted: named amino acid omitted, isonitrogenously compensated with the other amino acids; for inhibition of IL-6 induced fibrinogen secretion: IL-1β 10 ng/ml, insulin 1 μM
Description: as §1, §2, §3, §4, §5

[3] = added in combination with IL-6 10 ng/ml, n=6

Compound	albumin secretion in media in which one amino acid was omitted (HepG2 cells [1])	fibrinogen secretion in media in which one amino acid was omitted (HepG2 cells [2])	also measured
N=C(N)NCCC[C@H](N)C(=O)O [Arg, arginine]	significantly decreased; also recorded: significantly inhibited	significantly decreased; also recorded: significantly inhibited	–
N[C@@H](CO)C(=O)O [Ser, serine]	significantly decreased; also recorded: significantly inhibited	significantly decreased; also recorded: significantly inhibited	–
N[C@@H](CS)C(=O)O [cysteine]	significantly decreased; also recorded: significantly inhibited	significantly decreased; also recorded: significantly inhibited	–
C[C@@H]1C[C@H]2[C@@H]3CCC4=CC(=O)C=C[C@]4(C)[C@@]3(F)[C@@H](O)C[C@]2(C)[C@@]1(O)C(=O)CO [dexamethasone, reference compound]	–	–	enhancing effect on IL-6 induced fibrinogen secretion (HepG2 cells [2]; added in combination with IL-6 10 ng/ml, dexamethasone 1 μM, n=6): 20%
IL-1β: cytokine, used at 10 ng/ml [reference compound]	–	–	inhibition of IL-6 induced fibrinogen secretion (HepG2 cells [2]; [3]): approximately 25%
IL-6: Human IL-6 obtained from Sigma Aldrich [reference compound]	–	–	albumin secretion (excretion) from HepG2 cells (HepG2 cells [1]; incubation with IL-6 or other cytokines/hormones, 24-h, n=6): no significant effects; also recorded: no effect; fibrinogen secretion (excretion) from HepG2 cells (HepG2 cells [2]; incubation with IL-6, range 1-10 ng/ml, 24-h, n=6): concentration-dependent relationship; also recorded: significantly induces
insulin [reference compound]	–	–	inhibition of IL-6 induced fibrinogen secretion (HepG2 cells [2]; [3]): 50%
